Like-named read-outs stand apart in the source and are kept apart here.
How the values were obtained:
[1] = system: MYB; experiment: HiBiT protein abundance assay, MYB (K562 HiBiT knock-in); format: cell-based, human; conditions: HiBiT knock-in K562 cells, 24 hours, top dose 10 μM
In short: (§1)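 Steps: seed HiBiT knock-in K562 cells; add compound in 10-point 3-fold series from 10 μM final; incubate 24 h, 37 °C; add lytic HiBiT reagent, shake 5 min, wait 10 min; read luminescence. Normalize to parental K562 and DMSO controls, fit 4PL, take IC50.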

[2] = system: K562 cells; experiment: Cell Titer Glo 2.0 cell viability (toxicity) assay, K562; conditions: 500 cells/well, 72 hours
[3] = system: SMN2 mRNA; experiment: RT-qPCR splicing assay, SMN2 mRNA; format: cell-based, human; conditions: Homo sapiens, canonical junction qPCR panel, Table 4; read-out: SMN2 IC50 (decrease in CJ mRNA levels)
In short: (§2)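 Junction-specific RT-qPCR read-out: CJ and AJ isoform levels, housekeeper-normalized (GAPDH/GUSB/PPIA), ΔΔCt vs DMSO, converted to RQ then % response. Cells: A673 (DMEM/10% FBS, adhered 24 h) or K562 (IMDM/10% FBS). Compound 11-pt 3-fold, top 10 uM, 24 h, 37 °C.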

[4] = system: HTT mRNA; experiment: RT-qPCR splicing assay, HTT mRNA canonical (CJ) and alternative (AJ) junction; format: cell-based, human; conditions: Homo sapiens; for AC50: HTT alternative junction mRNA, read-out: HTT AJ (increase in AJ mRNA, AC50)
In short: as §2

[5] = system: MYB mRNA; experiment: RT-qPCR splicing assay, MYB mRNA canonical (CJ) and alternative (AJ) junction; format: cell-based, human; conditions: Homo sapiens; for AC50: MYB alternative junction mRNA, read-out: MYB AJ (increase in AJ mRNA, AC50)
In short: as §2

[6] = system: HTT; experiment: HiBiT protein abundance assay, HTT (K562 HiBiT knock-in); format: cell-based, human; conditions: HiBiT knock-in K562 cells, 24 hours, top dose 10 μM
In short: as §1

[7] = system: Target C; experiment: HiBiT protein abundance assay, Target C (K562 HiBiT knock-in); format: cell-based, human; conditions: HiBiT knock-in K562 cells, 24 hours, top dose 10 μM
In short: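 K562 HiBiT knock-in cells (10000/well) were treated 24 h at 37° C with a 10-point 3-fold dilution series (top 10 μM final, ≤0.25% DMSO). HiBiT luminescence was read after lytic LgBiT detection. Percent response used unmodified K562 and DMSO-treated knock-in controls, and IC50 came from a four-parameter fit at 50% of untreated.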

[8] = HTT canonical junction mRNA, RT-qPCR, read-out: HTT CJ (decrease in CJ mRNA levels, IC50)
[9] = canonical junction qPCR panel, Table 4, read-out: HTT IC50 (decrease in CJ mRNA levels)
[10] = MYB canonical junction mRNA, RT-qPCR, read-out: MYB CJ (decrease in CJ mRNA levels, IC50)
[11] = canonical junction qPCR panel, Table 4, read-out: MYB IC50 (decrease in CJ mRNA levels)

## CCNC1CCN(c2ccc3nc(-c4cc5cn(C)nc5cc4O)ccc3n2)CC1 [Compound 131]
[1]
  IC50: 1 to 10 µM
[2]
  Effect of Exemplary Compounds on Cell Viability, K562: B (B represents 100-1000 nM)
[3]
  IC50: < 0.1 µM
[4]; RT-qPCR
  AC50: > 10 µM
[4]; [8]
  IC50: 1 to 10 µM
[4]; [9]
  IC50: 1 to 10 µM
[5]; RT-qPCR
  AC50: 1 to 10 µM
[5]; [10]
  IC50: 1 to 10 µM
[5]; [11]
  IC50: 1 to 10 µM
[6]
  IC50: 1 to 10 µM
[7]
  IC50: 1 to 10 µM

## Cn1cc2cc(-c3ccc4nc(N5CCC(NC(C)(C)C)CC5)ccc4n3)c(O)cc2n1 [Compound 132]
[1]
  IC50: > 10 µM
[2]
  Effect of Exemplary Compounds on Cell Viability, K562: C (C represents 1000-9999 nM)
[3]
  IC50: > 10 µM
[4]; RT-qPCR
  AC50: > 10 µM
[4]; [8]
  IC50: > 10 µM
[4]; [9]
  IC50: > 10 µM
[5]; RT-qPCR
  AC50: > 10 µM
[5]; [10]
  IC50: > 10 µM
[5]; [11]
  IC50: > 10 µM
[6]
  IC50: > 10 µM
[7]
  IC50: > 10 µM

## CN(C)C1CCN(c2ccc3nc(-c4cc5cn(C)nc5cc4O)ccc3n2)CC1 [Compound 133]
[1]
  IC50: 1 to 10 µM
[2]
  Effect of Exemplary Compounds on Cell Viability, K562: B (B represents 100-1000 nM)
[3]
  IC50: < 0.1 µM
[4]; RT-qPCR
  AC50: 1 to 10 µM
[4]; [8]
  IC50: 1 to 10 µM
[4]; [9]
  IC50: 1 to 10 µM
[5]; RT-qPCR
  AC50: 0.1 to 1 µM
[5]; [10]
  IC50: 1 to 10 µM
[5]; [11]
  IC50: 1 to 10 µM
[6]
  IC50: 1 to 10 µM
[7]
  IC50: 1 to 10 µM

## Cn1cc2cc(-c3ccc4nc(N5CCNCC5)ccc4n3)c(O)cc2n1 [Compound 136]
[1]
  IC50: 0.1 to 1 µM
[2]
  Effect of Exemplary Compounds on Cell Viability, K562: B (B represents 100-1000 nM)
[3]
  IC50: < 0.1 µM
[4]; RT-qPCR
  AC50: 1 to 10 µM
[4]; [8]
  IC50: 1 to 10 µM
[4]; [9]
  IC50: 1 to 10 µM
[5]; RT-qPCR
  AC50: 0.1 to 1 µM
[5]; [10]
  IC50: 0.1 to 1 µM
[5]; [11]
  IC50: 0.1 to 1 µM
[6]
  IC50: 0.1 to 1 µM
[7]
  IC50: 0.1 to 1 µM

## C[C@@H]1CC(c2ccc3nc(-c4cc5cn(C)nc5cc4O)ccc3n2)C[C@H](C)N1 (some centres unmarked) [Compound 137]
[1]
  IC50: 0.1 to 1 µM
[2]
  Effect of Exemplary Compounds on Cell Viability, K562: B (B represents 100-1000 nM)
[3]
  IC50: < 0.1 µM
[4]; RT-qPCR
  AC50: 1 to 10 µM
[4]; [8]
  IC50: 0.1 to 1 µM
[4]; [9]
  IC50: 0.1 to 1 µM
[5]; RT-qPCR
  AC50: 0.1 to 1 µM
[5]; [10]
  IC50: 0.1 to 1 µM
[5]; [11]
  IC50: 0.1 to 1 µM
[6]
  IC50: 0.1 to 1 µM
[7]
  IC50: 0.1 to 1 µM

## CCN1CCC(c2ccc3nc(-c4cc5cn(C)nc5cc4O)ccc3n2)CC1 [Compound 138]
[1]
  IC50: 0.1 to 1 µM
[2]
  Effect of Exemplary Compounds on Cell Viability, K562: B (B represents 100-1000 nM)
[3]
  IC50: < 0.1 µM
[4]; RT-qPCR
  AC50: 0.1 to 1 µM
[4]; [8]
  IC50: 0.1 to 1 µM
[4]; [9]
  IC50: 0.1 to 1 µM
[5]; RT-qPCR
  AC50: 0.1 to 1 µM
[5]; [10]
  IC50: 0.1 to 1 µM
[5]; [11]
  IC50: 0.1 to 1 µM
[6]
  IC50: 0.1 to 1 µM
[7]
  IC50: 0.1 to 1 µM

## C[C@H]1C[C@H](c2ccc3nc(-c4cc5cn(C)nc5cc4O)ccc3n2)CCN1 [Compound 139]
[1]
  IC50: 0.1 to 1 µM
[2]
  Effect of Exemplary Compounds on Cell Viability, K562: B (B represents 100-1000 nM)
[3]
  IC50: < 0.1 µM
[4]; RT-qPCR
  AC50: < 0.1 µM
[4]; [8]
  IC50: < 0.1 µM
[4]; [9]
  IC50: < 0.1 µM
[5]; RT-qPCR
  AC50: < 0.1 µM
[5]; [10]
  IC50: < 0.1 µM
[5]; [11]
  IC50: < 0.1 µM
[6]
  IC50: 0.1 to 1 µM
[7]
  IC50: < 0.1 µM

## C[C@H]1C[C@@H](c2ccc3nc(-c4cc5cn(C)nc5cc4O)ccc3n2)CCN1 [Compound 140]
[1]
  IC50: 0.1 to 1 µM
[2]
  Effect of Exemplary Compounds on Cell Viability, K562: B (B represents 100-1000 nM)
[3]
  IC50: < 0.1 µM
[4]; RT-qPCR
  AC50: 0.1 to 1 µM
[4]; [8]
  IC50: < 0.1 µM
[4]; [9]
  IC50: < 0.1 µM
[5]; RT-qPCR
  AC50: 0.1 to 1 µM
[5]; [10]
  IC50: < 0.1 µM
[5]; [11]
  IC50: < 0.1 µM
[6]
  IC50: 0.1 to 1 µM
[7]
  IC50: 0.1 to 1 µM

## Cn1cc2c(O)c(-c3cc4ccc(C5CCNCC5)nc4cn3)cc(Br)c2n1 [Compound 141]
[1]
  IC50: 1 to 10 µM
[2]
  Effect of Exemplary Compounds on Cell Viability, K562: C (C represents 1000-9999 nM)
[3]
  IC50: 0.1 to 1 µM
[4]; RT-qPCR
  AC50: 1 to 10 µM
[4]; [8]
  IC50: 1 to 10 µM
[4]; [9]
  IC50: 1 to 10 µM
[5]; RT-qPCR
  AC50: 1 to 10 µM
[5]; [10]
  IC50: 0.1 to 1 µM
[5]; [11]
  IC50: 0.1 to 1 µM
[6]
  IC50: 1 to 10 µM
[7]
  IC50: 1 to 10 µM

## CN1CCC(c2ccc3nc(-c4cc5cn(C)nc5cc4O)ccc3n2)CC1 [Compound 142]
[1]
  IC50: 0.1 to 1 µM
[2]
  Effect of Exemplary Compounds on Cell Viability, K562: B (B represents 100-1000 nM)
[3]
  IC50: < 0.1 µM
[4]; RT-qPCR
  AC50: 0.1 to 1 µM
[4]; [8]
  IC50: 0.1 to 1 µM
[4]; [9]
  IC50: 0.1 to 1 µM
[5]; RT-qPCR
  AC50: 0.1 to 1 µM
[5]; [10]
  IC50: 0.1 to 1 µM
[5]; [11]
  IC50: 0.1 to 1 µM
[6]
  IC50: 0.1 to 1 µM
[7]
  IC50: 0.1 to 1 µM

## COc1cc2nn(C)cc2cc1-c1ccc2c(F)c(C3CCNCC3)ccc2n1 [Compound 143]
[1]
  IC50: > 10 µM
[2]
  Effect of Exemplary Compounds on Cell Viability, K562: B (B represents 100-1000 nM)
[3]
  IC50: > 10 µM
[4]; RT-qPCR
  AC50: > 10 µM
[4]; [8]
  IC50: > 10 µM
[4]; [9]
  IC50: > 10 µM
[5]; RT-qPCR
  AC50: > 10 µM
[5]; [10]
  IC50: > 10 µM
[5]; [11]
  IC50: > 10 µM
[6]
  IC50: > 10 µM
[7]
  IC50: 1 to 10 µM

## Cn1cc2cc(-c3ccc4cc(C5CCNCC5)c(F)cc4n3)c(O)cc2n1 [Compound 144]
[1]
  IC50: > 10 µM
[2]
  Effect of Exemplary Compounds on Cell Viability, K562: D (D represents greater than 10 μM in K562 cells)
[3]
  IC50: > 10 µM
[4]; RT-qPCR
  AC50: > 10 µM
[4]; [8]
  IC50: > 10 µM
[4]; [9]
  IC50: > 10 µM
[5]; RT-qPCR
  AC50: > 10 µM
[5]; [10]
  IC50: > 10 µM
[5]; [11]
  IC50: > 10 µM
[6]
  IC50: > 10 µM
[7]
  IC50: > 10 µM

## COc1cc2nn(C)cc2cc1-c1ccc2cc(C3CCNCC3)c(F)cc2n1 [Compound 145]
[1]
  IC50: > 10 µM
[2]
  Effect of Exemplary Compounds on Cell Viability, K562: D (D represents greater than 10 μM in K562 cells)
[3]
  IC50: > 10 µM
[4]; RT-qPCR
  AC50: > 10 µM
[4]; [8]
  IC50: > 10 µM
[4]; [9]
  IC50: > 10 µM
[5]; RT-qPCR
  AC50: > 10 µM
[5]; [10]
  IC50: > 10 µM
[5]; [11]
  IC50: > 10 µM
[6]
  IC50: > 10 µM
[7]
  IC50: > 10 µM

— patent US20250092065A1, “2-(INDAZOL-5-YL)-6-(PIPERIDIN-4-YL)-1,7-NAPHTHYRIDINE DERIVATIVES AND RELATED COMPOUNDS AS MODULATORS FOR SPLICING NUCLEIC ACIDS AND FOR THE TREATMENT OF PROLIFERATIVE DISEASES” (REMIX THERAPEUTICS INC., priority 2022, published 2025)
